This is an account of results in patent US20090111182A1, “Method for Propagation of Plant” (priority 2005, published 2009).

Molecules are shown by their SMILES.

The test system of assay [1] is embryogenic callus from Double Take. Put plainly: Somatic embryo induction in liquid medium (flask), effects of sugar composition and addition of BA. Conditions: sucrose 0%, sorbitol 3%, fructose 1.1%, BA 0 ppm. It is filed as cell-based, Spathiphyllum (cultivar Double Take). The method, then:
(§1) MS liquid medium (pH 5.8) containing 1% sucrose, 3% sorbitol, and MES 5 mM was used as basal medium. Proline and glutamic acid were added to the media at the following concentrations. […] The fresh weights the thus induced somatic embryos were measured (Table 1).
Media with compositions listed in Table 2 were prepared (compositions other than those listed in Table 2 were the same as those of the “somatic embryo induction medium.”).

In assay [2] the test system is embryogenic callus of the cultivar Petite. Put plainly: Somatic embryo induction in liquid medium (shaken Erlenmeyer flask), effects of proline and glutamic acid. It is filed as cell-based, Spathiphyllum (cultivar Petite). To be noted: 0.05 g callus, 40 ml medium, 6 weeks. The method, then: as §1

For `O=C(CO)[C@@H](O)[C@H](O)[C@H](O)CO` [Fructose, fructose], the “Weight of somatic embryo” value in assay [1] was 3.8 (g)/flask.
With `N[C@@H](CCC(=O)O)C(=O)O` [Glutamic acid, glutamic acid], the “Amount of embryo collected” value in assay [2] (proline 0 mM, glutamic acid 3 mM) is listed as 3.5 g/flask.
As to `O=C(O)[C@@H]1CCCN1` [Proline, proline], in assay [2] (proline 3 mM, glutamic acid 0 mM), the “Amount of embryo collected” value is given as 3.4 g/flask.
